This is an account of results in the OligoGym collection.

HELM strings list units from the 5' end as sugar, base in round brackets, then linkage (d deoxyribose, r ribose, m 2'-O-methyl, p phosphodiester). Strings are as the collection lists them; they lack the last nucleoside at the 3' end of the tested compound. [moe] = 2'-O-(2-methoxyethyl) (MOE); [sp] = phosphorothioate linkage; [m5C] = 5-methylcytosine

The target in this series is C9ORF72. Description: mouse, dose not given. The conditions noted are these: ASO.
With “RNA1{[moe](G)[sp].[moe]([m5C])p.[moe]([m5C])[sp].d(T)[sp].d(T)[sp].d(A)[sp].d([m5C])[sp].d(T)[sp].d([m5C])[sp].d(T)[sp].d(A)[sp].[moe](G)p.[moe](G)p.[moe](A)p.[moe]([m5C])p.[moe]([m5C])[sp].[moe](A)}$$$$ (last 3' nucleoside missing)”, the 3 h FOB score came out at 1.25 score 0-7.

Regarding “RNA1{[moe]([m5C])[sp].[moe]([m5C])p.[moe]([m5C])p.[moe]([m5C])p.[moe](T)p.[moe](A)p.d(G)[sp].d([m5C])[sp].d(G)[sp].d([m5C])[sp].d(G)[sp].d([m5C])[sp].d(G)[sp].d(A)[sp].d([m5C])[sp].d(T)[sp].[moe]([m5C])p.[moe]([m5C])[sp].[moe](T)}$$$$ (last 3' nucleoside missing)”, the 3 h FOB score worked out at 6 score 0-7.

The substance “RNA1{[moe]([m5C])[sp].[moe](A)p.[moe](G)p.[moe](G)p.d([m5C])[sp].d(T)[sp].d(G)[sp].d([m5C])[sp].d(G)[sp].d(G)[sp].d(T)[sp].d(T)[sp].d(G)[sp].d(T)[sp].[moe](T)p.[moe](T)p.[moe]([m5C])p.[moe]([m5C])[sp].[moe]([m5C])}$$$$ (last 3' nucleoside missing)” yielded a 3 h FOB score of 4.75 score 0-7.

Regarding “RNA1{[moe](A)[sp].[moe](G)p.[moe](G)p.[moe]([m5C])[sp].d(T)[sp].d(G)[sp].d([m5C])[sp].d(G)[sp].d(G)[sp].d(T)[sp].d(T)[sp].d(G)[sp].[moe](T)p.[moe](T)p.[moe](T)p.[moe]([m5C])[sp].[moe]([m5C])}$$$$ (last 3' nucleoside missing)”, the 3 h FOB score amounted to 7 score 0-7.

For “RNA1{[moe](G)[sp].[moe]([m5C])p.[moe]([m5C])p.[moe](T)p.[moe](T)p.[moe](A)p.[moe]([m5C])p.d(T)[sp].d([m5C])[sp].d(T)[sp].d(A)[sp].d(G)[sp].d(G)[sp].d(A)[sp].d([m5C])[sp].d([m5C])[sp].d(A)[sp].[moe](A)[sp].[moe](G)}$$$$ (last 3' nucleoside missing)”, the 3 h FOB score came to 3.25 score 0-7.

As for “RNA1{[moe](T)[sp].[moe]([m5C])p.[moe](T)p.[moe](G)p.[moe](T)p.[moe]([m5C])[sp].d(T)[sp].d(T)[sp].d(T)[sp].d(G)[sp].d(G)[sp].d(A)[sp].d(G)[sp].d([m5C])[sp].[moe]([m5C])p.[moe]([m5C])[sp].[moe](A)}$$$$ (last 3' nucleoside missing)”, the 3 h FOB score amounted to 5.5 score 0-7.

Substance “RNA1{[moe]([m5C])[sp].[moe]([m5C])p.[moe](T)p.[moe](A)[sp].d(G)[sp].d([m5C])[sp].d(G)[sp].d([m5C])[sp].d(G)[sp].d([m5C])[sp].d(G)[sp].d(A)[sp].[moe]([m5C])p.[moe](T)p.[moe]([m5C])p.[moe]([m5C])[sp].[moe](T)}$$$$ (last 3' nucleoside missing)” returned a 3 h FOB score of 3 score 0-7.

On to “RNA1{[moe](T)[sp].[moe](G)p.[moe](G)p.[moe](T)[sp].d(T)[sp].d(A)[sp].d(A)[sp].d(T)[sp].d([m5C])[sp].d(T)[sp].d(T)[sp].d(T)[sp].[moe](A)p.[moe](T)p.[moe]([m5C])p.[moe](A)[sp].[moe](G)}$$$$ (last 3' nucleoside missing)”, for which the 3 h FOB score came out at 3.25 score 0-7.

As to “RNA1{[moe](G)[sp].[moe]([m5C])p.[moe]([m5C])p.[moe](T)p.d(T)[sp].d(A)[sp].d([m5C])[sp].d(T)[sp].d([m5C])[sp].d(T)[sp].d(A)[sp].d(G)[sp].d(G)[sp].d(A)[sp].[moe]([m5C])p.[moe]([m5C])p.[moe](A)p.[moe](A)[sp].[moe](G)}$$$$ (last 3' nucleoside missing)”, the 3 h FOB score came out at 5.75 score 0-7.

In the case of “RNA1{[moe]([m5C])[sp].[moe](G)p.[moe](G)p.[moe]([m5C])p.[moe]([m5C])p.d([m5C])[sp].d([m5C])[sp].d(T)[sp].d(A)[sp].d(G)[sp].d([m5C])[sp].d(G)[sp].d([m5C])[sp].d(G)[sp].[moe]([m5C])p.[moe](G)p.[moe](A)[sp].[moe]([m5C])}$$$$ (last 3' nucleoside missing)”, the 3 h FOB score worked out at 4 score 0-7.

Substance “RNA1{[moe](A)[sp].[moe](G)p.[moe](G)p.[moe]([m5C])p.d(T)[sp].d(G)[sp].d([m5C])[sp].d(G)[sp].d(G)[sp].d(T)[sp].d(T)[sp].d(G)[sp].d(T)[sp].d(T)[sp].[moe](T)p.[moe]([m5C])p.[moe]([m5C])p.[moe]([m5C])[sp].[moe](T)}$$$$ (last 3' nucleoside missing)” returned a 3 h FOB score of 6.25 score 0-7.

As for “RNA1{[moe]([m5C])[sp].[moe](G)p.[moe](G)p.[moe]([m5C])p.[moe]([m5C])p.[moe]([m5C])[sp].d([m5C])[sp].d(T)[sp].d(A)[sp].d(G)[sp].d([m5C])[sp].d(G)[sp].d([m5C])[sp].d(G)[sp].[moe]([m5C])p.[moe](G)[sp].[moe](A)}$$$$ (last 3' nucleoside missing)”, the 3 h FOB score came to 4.5 score 0-7.

On to “RNA1{[moe](G)[sp].[moe]([m5C])p.[moe]([m5C])p.[moe]([m5C])p.[moe]([m5C])p.[moe](T)p.d(A)[sp].d(G)[sp].d([m5C])[sp].d(G)[sp].d([m5C])[sp].d(G)[sp].d([m5C])[sp].d(G)[sp].d(A)[sp].d([m5C])[sp].[moe](T)p.[moe]([m5C])[sp].[moe]([m5C])}$$$$ (last 3' nucleoside missing)”, for which the 3 h FOB score was 0 score 0-7.

As for “RNA1{[moe](G)[sp].[moe](G)p.[moe]([m5C])p.[moe](T)p.d(G)[sp].d([m5C])[sp].d(G)[sp].d(G)[sp].d(T)[sp].d(T)[sp].d(G)[sp].d(T)[sp].d(T)[sp].[moe](T)p.[moe]([m5C])p.[moe]([m5C])p.[moe]([m5C])[sp].[moe](T)}$$$$ (last 3' nucleoside missing)”, the 3 h FOB score worked out at 6 score 0-7.

On to “RNA1{[moe]([m5C])[sp].[moe](T)p.[moe](G)p.[moe]([m5C])p.[moe](G)p.[moe](A)p.[moe](T)p.d([m5C])[sp].d([m5C])[sp].d([m5C])[sp].d([m5C])[sp].d(A)[sp].d(T)[sp].d(T)[sp].d([m5C])[sp].d([m5C])[sp].d(A)[sp].[moe](G)[sp].[moe](T)}$$$$ (last 3' nucleoside missing)”, for which the 3 h FOB score was found to be 0.25 score 0-7.

Substance “RNA1{[moe](G)[sp].[moe]([m5C])p.[moe]([m5C])p.[moe](T)p.[moe](T)p.[moe](A)p.[moe]([m5C])[sp].d(T)[sp].d([m5C])[sp].d(T)[sp].d(A)[sp].d(G)[sp].d(G)[sp].d(A)[sp].d([m5C])[sp].[moe]([m5C])[sp].[moe](A)}$$$$ (last 3' nucleoside missing)” gave a 3 h FOB score of 2.5 score 0-7.

“RNA1{[moe]([m5C])[sp].[moe](T)p.[moe](G)p.d([m5C])[sp].d(G)[sp].d(A)[sp].d(T)[sp].d([m5C])[sp].d([m5C])[sp].d([m5C])[sp].d([m5C])[sp].d(A)[sp].d(T)[sp].[moe](T)p.[moe]([m5C])p.[moe]([m5C])p.[moe](A)p.[moe](G)[sp].[moe](T)}$$$$ (last 3' nucleoside missing)” gave a 3 h FOB score of 1.75 score 0-7.

In turn, “RNA1{[moe](T)[sp].[moe]([m5C])p.[moe](T)[sp].d(G)[sp].d(T)[sp].d([m5C])[sp].d(T)[sp].d(T)[sp].d(T)[sp].d(G)[sp].d(G)[sp].[moe](A)p.[moe](G)p.[moe]([m5C])p.[moe]([m5C])p.[moe]([m5C])[sp].[moe](A)}$$$$ (last 3' nucleoside missing)” showed a 3 h FOB score of 4 score 0-7.

In turn, “RNA1{[moe]([m5C])[sp].[moe](T)p.[moe](G)p.[moe](G)p.[moe](T)p.[moe](T)p.d(A)[sp].d(A)[sp].d(T)[sp].d([m5C])[sp].d(T)[sp].d(T)[sp].d(T)[sp].d(A)[sp].d(T)[sp].d([m5C])[sp].[moe](A)p.[moe](G)[sp].[moe](G)}$$$$ (last 3' nucleoside missing)” displayed a 3 h FOB score of 0 score 0-7.

As for “RNA1{[moe]([m5C])[sp].[moe]([m5C])p.[moe]([m5C])p.[moe]([m5C])p.d(T)[sp].d(A)[sp].d(G)[sp].d([m5C])[sp].d(G)[sp].d([m5C])[sp].d(G)[sp].d([m5C])[sp].d(G)[sp].d(A)[sp].[moe]([m5C])p.[moe](T)p.[moe]([m5C])p.[moe]([m5C])[sp].[moe](T)}$$$$ (last 3' nucleoside missing)”, the 3 h FOB score is 3.75 score 0-7.

Consider “RNA1{[moe]([m5C])[sp].[moe](A)p.[moe](G)p.[moe](G)p.[moe]([m5C])p.[moe](T)p.d(G)[sp].d([m5C])[sp].d(G)[sp].d(G)[sp].d(T)[sp].d(T)[sp].d(G)[sp].d(T)[sp].d(T)[sp].d(T)[sp].[moe]([m5C])p.[moe]([m5C])[sp].[moe]([m5C])}$$$$ (last 3' nucleoside missing)”, for which the 3 h FOB score is 2 score 0-7.

In the case of “RNA1{[moe](G)[sp].[moe]([m5C])p.[moe]([m5C])p.[moe]([m5C])p.[moe]([m5C])p.[moe](T)[sp].d(A)[sp].d(G)[sp].d([m5C])[sp].d(G)[sp].d([m5C])[sp].d(G)[sp].d([m5C])[sp].d(G)[sp].[moe](A)p.[moe]([m5C])[sp].[moe](T)}$$$$ (last 3' nucleoside missing)”, the 3 h FOB score is 1 score 0-7.
